Results taken from patent publication US20250163104A1, “MACROCYCLIC IMMUNOMODULATORS” (priority 2021, published 2025).
Where a SMILES comes first, the peptide text is derived from it. Bridges are numbered along the chain shown (N, C = ends). [ ]: non-standard residue; d: D form. The star is where a group is joined. ξ: configuration not given here. Phe(4-COOH) = N[C@@H](Cc1ccc(C(=O)O)cc1)C(=O)O; Bip = N[C@@H](Cc1ccc(-c2ccccc2)cc1)C(=O)O; Phe(3-Cl) = N[C@@H](Cc1cccc(Cl)c1)C(=O)O; Phe(3-OMe) = COc1cccc(C[C@H](N)C(=O)O)c1; Phe(3-Me) = Cc1cccc(C[C@H](N)C(=O)O)c1; Val(3-OH) = CC(C)(O)[C@H](N)C(=O)O; 3Pal = N[C@@H](Cc1cccnc1)C(=O)O; 4Pal = N[C@@H](Cc1ccncc1)C(=O)O; Cha = N[C@@H](CC1CCCCC1)C(=O)O; Cit = NC(=O)NCCC[C@H](N)C(=O)O; Thr(3ξ) = CC(O)[C@H](N)C(=O)O; dNle = CCCC[C@@H](N)C(=O)O; Carboxymethyl = O=C(O)C*; Orn = NCCC[C@H](N)C(=O)O; Pra = C#CC[C@H](N)C(=O)O; Dab = NCC[C@H](N)C(=O)O; Dap = NC[C@H](N)C(=O)O

molecular target: T1, human PD-1 / PD-L1-Ig binding on Jurkat cell line over-expressing human PD-1 (Jurkat-PD-1) (Homo sapiens, UniProt Q15116); test: Jurkat-PD-1 Cell Binding High-Content Screening Assay (CBA); assay type: cell-based; details: Jurkat-PD-1 cells, PE-labeled PD-L1-Ig 20 nM final; read-out: Jurkat HPD1_PDL1 IC50
T1 construct: expressed in transfected cells; host or cells: Jurkat
Summary of the method: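 Jurkat cells over-expressing human PD-1, in DMEM/10% FCS, pre-incubated with compound 2 h at 37° C. PE-labeled human PD-L1-Ig (20 nM final) added for 1 h; cells fixed in paraformaldehyde with Hoechst 33342 nuclear stain, washed, and bound fluorescence quantified by high-content imaging.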

T1 sequence (Q15116 25-288): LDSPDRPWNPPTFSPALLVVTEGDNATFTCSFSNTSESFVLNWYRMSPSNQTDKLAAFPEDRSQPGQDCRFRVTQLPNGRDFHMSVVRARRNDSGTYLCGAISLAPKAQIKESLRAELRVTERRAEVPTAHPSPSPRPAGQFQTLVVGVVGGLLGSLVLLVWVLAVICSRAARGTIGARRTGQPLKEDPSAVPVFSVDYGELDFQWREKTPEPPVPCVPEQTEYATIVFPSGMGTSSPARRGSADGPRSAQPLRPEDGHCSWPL

Row | Structure (SMILES) | IC50
1 | CC(C)C[C@H]1NC(=O)[C@H](CCCN)NC(=O)[C@H](CCC(=O)O)NC(=O)[C@H](Cc2ccc(-c3ccccc3)cc2)NC(=O)[C@H](C(C)C)NC(=O)[C@H](Cc2cccc(C(F)(F)F)c2)NC(=O)[C@H](CC(=O)O)NC(=O)[C@H](Cc2ccc(OCC(=O)O)cc2)NC(=O)[C@H](CN)NC(=O)CSC[C@@H](C(=O)N[C@@H](C)C(N)=O)NC(=O)[C@H]([C@@H](C)O)NC(=O)[C@H](C(C)C)NC(=O)[C@H](CC2CCCCC2)NC(=O)[C@H](CCN)NC1=O [Compound 1458] | 17.9 nM
2 | Cc1cccc(C[C@@H]2NC(=O)[C@H](CC(=O)O)NC(=O)[C@H](Cc3ccc(C(=O)O)cc3)NC(=O)[C@H](Cc3ccncc3)NC(=O)CSC[C@@H](C(=O)N[C@@H](CC(N)=O)C(N)=O)NC(=O)[C@H](CO)NC(=O)[C@H](C(C)C)NC(=O)[C@H](CC3CCCCC3)NC(=O)[C@H](CCN)NC(=O)[C@@H](CC(C)C)NC(=O)[C@H](CCCN)NC(=O)[C@H](Cc3ccc(O)cc3)NC(=O)[C@H](Cc3ccc(-c4ccccc4)cc3)NC(=O)[C@H](C(C)C)NC2=O)c1 [Compound 2289] ({CH2CO}-[4Pal][Phe(4-COOH)]D[Phe(3-Me)]V[Bip]Y[Orn][dL][Dab][Cha]VSCN-NH2; thioether N-14) | 16.4 nM
3 | CC(C)C[C@@H]1NC(=O)[C@H](CCN)NC(=O)[C@@H](CC(C)C)NC(=O)[C@H](CCN)NC(=O)[C@H](CCC(=O)O)NC(=O)[C@H](Cc2ccc(-c3ccccc3)cc2)NC(=O)[C@H](C(C)C)NC(=O)[C@H](Cc2c[nH]c3ccccc23)NC(=O)[C@H](CC(=O)O)NC(=O)[C@H](Cc2ccc(OCC(=O)O)cc2)NC(=O)[C@H](Cc2ccncc2)NC(=O)CSC[C@@H](C(=O)N[C@@H](C)C(N)=O)NC(=O)[C@H](CO)NC(=O)[C@H](C(C)C)NC1=O [Compound 1266] ({CH2CO}-[4Pal]Y(Carboxymethyl)DWV[Bip]E[Dab][dL][Dab]LVSCA-NH2; thioether N-14) | 29.6 nM
4 | CC(C)C[C@H]1NC(=O)[C@H](CCCN)NC(=O)[C@H](CCC(=O)O)NC(=O)[C@H](Cc2ccc(-c3ccccc3)cc2)NC(=O)[C@H](C(C)C)NC(=O)[C@H](Cc2c[nH]c3ccccc23)NC(=O)[C@H](CC(=O)O)NC(=O)[C@H](Cc2cccnc2)NC(=O)[C@H](Cc2ccncc2)NC(=O)CSC[C@@H](C(=O)N[C@@H](C)C(N)=O)NC(=O)[C@H]([C@@H](C)O)NC(=O)[C@H](C(C)C)NC(=O)[C@H](CC2CCCCC2)NC(=O)[C@H](CCN)NC1=O [Compound 2174] ({CH2CO}-[4Pal][3Pal]DWV[Bip]E[Orn][dL][Dab][Cha]VTCA-NH2; thioether N-14) | 17.7 nM
5 | CC(C)C[C@H]1NC(=O)[C@H](CCCN)NC(=O)[C@H](C(C)C)NC(=O)[C@H](Cc2ccc(-c3ccccc3)cc2)NC(=O)[C@H](C(C)C)NC(=O)[C@H](Cc2cccc(Cl)c2)NC(=O)[C@H](CC(=O)O)NC(=O)[C@H](Cc2ccncc2)NC(=O)[C@H](CN)NC(=O)CSC[C@@H](C(=O)N[C@@H](C)C(N)=O)NC(=O)[C@H]([C@@H](C)O)NC(=O)[C@H](C(C)C)NC(=O)[C@H](CC2CCCCC2)NC(=O)[C@H](CCN)NC1=O [Compound 1578] ({CH2CO}-[Dap][4Pal]D[Phe(3-Cl)]V[Bip]V[Orn][dL][Dab][Cha]VTCA-NH2; thioether N-14) | 35 nM
6 | CCCC[C@H]1NC(=O)[C@H](CCCN)NC(=O)[C@H](C(C)C)NC(=O)[C@H](Cc2ccc(-c3ccccc3)cc2)NC(=O)[C@H](C(C)C)NC(=O)[C@H](Cc2c[nH]c3ccccc23)NC(=O)[C@H](CC(=O)O)NC(=O)[C@H](Cc2ccc(O)cc2)NC(=O)[C@H](CC(N)=O)NC(=O)CSC[C@@H](C(=O)N[C@@H](C)C(N)=O)NC(=O)[C@H]([C@@H](C)O)NC(=O)[C@H](C(C)C)NC(=O)[C@H](CC2CCCCC2)NC(=O)[C@H](CCN)NC1=O [Compound 1696] ({CH2CO}-NYDWV[Bip]V[Orn][dNle][Dab][Cha]VTCA-NH2; thioether N-14) | 18.7 nM
7 | CC(C)C[C@@H]1NC(=O)[C@H](Cc2c[nH]c3ccccc23)NC(=O)[C@H](CC(=O)O)NC(=O)[C@H](Cc2ccncc2)NC(=O)[C@H](CN)NC(=O)CSC[C@@H](C(=O)NCC(N)=O)NC(=O)[C@H](CO)NC(=O)[C@H](C(C)C)NC(=O)[C@H](CC(C)C)NC(=O)[C@H](CC(N)=O)NC(=O)[C@@H](CC(C)C)NC(=O)[C@H](CCCN)NC(=O)[C@H](C(C)C)NC(=O)[C@H](Cc2ccc(-c3ccccc3)cc2)NC1=O [Compound 1285] ({CH2CO}-[Dap][4Pal]DWL[Bip]V[Orn][dL]NLVSCG-NH2; thioether N-14) | 42.6 nM

Other lines, results leading:

Row | IC50 | Structure (SMILES)
8 | 4 nM | CC(C)C[C@H]1NC(=O)[C@H](CCCN)NC(=O)[C@H](C(C)C)NC(=O)[C@H](Cc2ccc(-c3ccccc3)cc2)NC(=O)[C@H](C(C)C)NC(=O)[C@H](Cc2c[nH]c3ccccc23)NC(=O)[C@H](CC(=O)O)NC(=O)[C@H](Cc2ccc(C(=O)O)cc2)NC(=O)[C@H](Cc2ccc(OCC(=O)O)cc2)NC(=O)CSC[C@@H](C(=O)N[C@@H](C)C(N)=O)NC(=O)[C@H](CCCCN)NC(=O)[C@H](C(C)C)NC(=O)[C@H](CC2CCCCC2)NC(=O)[C@H](CCN)NC1=O [Compound 1745] ({CH2CO}-Y(Carboxymethyl)[Phe(4-COOH)]DWV[Bip]V[Orn][dL][Dab][Cha]VKCA-NH2; thioether N-14)
9 | 12.1 nM | C#CC[C@H](NC(=O)CNC(=O)[C@@H]1CSCC(=O)N[C@@H](CN)C(=O)N[C@@H](Cc2ccc(OCC(=O)O)cc2)C(=O)N[C@@H](CC(=O)O)C(=O)N[C@@H](Cc2cccc(C)c2)C(=O)N[C@@H](C(C)C)C(=O)N[C@@H](Cc2ccc(-c3ccccc3)cc2)C(=O)N[C@@H](CCCNC(N)=O)C(=O)N[C@@H](CCCN)C(=O)N[C@H](CC(C)C)C(=O)N[C@@H](CCN)C(=O)N[C@@H](CC2CCCCC2)C(=O)N[C@@H](C(C)C)C(=O)N[C@@H]([C@@H](C)O)C(=O)N1)C(=O)O [Compound 2263] ({CH2CO}-[Dap]Y(Carboxymethyl)D[Phe(3-Me)]V[Bip][Cit][Orn][dL][Dab][Cha]VTCG[Pra]-OH; thioether N-14)
10 | 16.2 nM | CCC(C)[C@@H]1NC(=O)[C@H](Cc2ccc(-c3ccccc3)cc2)NC(=O)[C@H](C(C)C)NC(=O)[C@H](Cc2cccc(C)c2F)NC(=O)[C@H](CC(=O)O)NC(=O)[C@H](Cc2ccc(OCC(=O)O)cc2)NC(=O)[C@H](CN)NC(=O)CSC[C@@H](C(=O)N[C@@H](C)C(N)=O)NC(=O)[C@H]([C@@H](C)O)NC(=O)[C@H](C(C)C)NC(=O)[C@H](CC2CCCCC2)NC(=O)[C@H](CCN)NC(=O)[C@@H](CC(C)C)NC(=O)[C@H](CCCN)NC1=O (stereo partly shown) [Compound 2243]
11 | 7.2 nM | Cc1cccc(C[C@@H]2NC(=O)[C@H](CC(=O)O)NC(=O)[C@H](Cc3ccc(OCC(=O)O)cc3)NC(=O)[C@H](Cc3cnc[nH]3)NC(=O)CSC[C@@H](C(=O)N[C@@H](CCN)C(N)=O)NC(=O)[C@H](C(C)O)NC(=O)[C@H](C(C)(C)O)NC(=O)[C@H](CC3CCCCC3)NC(=O)[C@H](CCN)NC(=O)[C@@H](CC(C)C)NC(=O)[C@H](CCCN)NC(=O)[C@H](Cc3ccc(OCC(=O)O)cc3)NC(=O)[C@H](Cc3ccc(-c4ccccc4)cc3)NC(=O)[C@H](Cc3ccc(OCC(=O)O)cc3)NC2=O)c1 (stereo partly drawn) [Compound 2649] ({CH2CO}-HY(Carboxymethyl)D[Phe(3-Me)]Y(Carboxymethyl)[Bip]Y(Carboxymethyl)[Orn][dL][Dab][Cha][Val(3-OH)][Thr(3ξ)]C[Dab]-NH2; thioether N-14)
12 | 8.7 nM | CC(C)C[C@H]1NC(=O)[C@H](CCCN)NC(=O)[C@H](CCCNC(N)=O)NC(=O)[C@H](Cc2ccc(-c3ccccc3)cc2)NC(=O)[C@H](C(C)C)NC(=O)[C@H](Cc2c[nH]c3ccccc23)NC(=O)[C@H](CC(=O)O)NC(=O)[C@H](Cc2cccnc2)NC(=O)[C@H](CN)NC(=O)CSC[C@@H](C(=O)N[C@@H](C)C(N)=O)NC(=O)[C@H]([C@@H](C)O)NC(=O)[C@H](C(C)C)NC(=O)[C@H](CC2CCCCC2)NC(=O)[C@H](CCN)NC1=O [Compound 2094]
13 | 7.7 nM | CC(C)C[C@H]1NC(=O)[C@H](CCCN)NC(=O)[C@H](CCC(=O)O)NC(=O)[C@H](Cc2ccc(-c3ccccc3)cc2)NC(=O)[C@H](C(C)C)NC(=O)[C@H](Cc2c[nH]c3ccccc23)NC(=O)[C@H](CC(=O)O)NC(=O)[C@H](Cc2ccc(-c3cccc(C(=O)O)c3)cc2)NC(=O)[C@H](CN)NC(=O)CSC[C@@H](C(=O)N[C@@H](C)C(N)=O)NC(=O)[C@H]([C@@H](C)O)NC(=O)[C@H](C(C)C)NC(=O)[C@H](CC2CCCCC2)NC(=O)[C@H](CCN)NC1=O [Compound 2162]
14 | 9 nM | COc1cccc(C[C@@H]2NC(=O)[C@H](CC(=O)O)NC(=O)[C@H](Cc3ccncc3)NC(=O)[C@H](CN)NC(=O)CSC[C@@H](C(=O)N[C@@H](C)C(N)=O)NC(=O)[C@H]([C@@H](C)O)NC(=O)[C@H](C(C)C)NC(=O)[C@H](CC3CCCCC3)NC(=O)[C@H](CCN)NC(=O)[C@@H](CC(C)C)NC(=O)[C@H](CCCN)NC(=O)[C@H](CCC(=O)O)NC(=O)[C@H](Cc3ccc(-c4ccccc4)cc3)NC(=O)[C@H](C(C)C)NC2=O)c1 [Compound 1546] ({CH2CO}-[Dap][4Pal]D[Phe(3-OMe)]V[Bip]E[Orn][dL][Dab][Cha]VTCA-NH2; thioether N-14)
15 | 8.3 nM | CCCC[C@H]1NC(=O)[C@H](CCCN)NC(=O)[C@H](CCC(=O)O)NC(=O)[C@H](Cc2ccc(-c3ccccc3)cc2)NC(=O)[C@H](C(C)C)NC(=O)[C@H](Cc2c[nH]c3ccccc23)NC(=O)[C@H](CC(=O)O)NC(=O)[C@H](Cc2ccc(C(=O)O)cc2)NC(=O)[C@H](Cc2ccc(OCC(=O)O)cc2)NC(=O)CSC[C@@H](C(=O)N[C@@H](C)C(N)=O)NC(=O)[C@H]([C@@H](C)O)NC(=O)[C@H](C(C)C)NC(=O)[C@H](CC2CCCCC2)NC(=O)[C@H](CCN)NC1=O [Compound 1455]
16 | 10.7 nM | CCCC[C@H]1NC(=O)[C@H](CCCN)NC(=O)[C@H](C(C)C)NC(=O)[C@H](Cc2ccc(-c3ccccc3)cc2)NC(=O)[C@H](C(C)C)NC(=O)[C@H](Cc2c[nH]c3ccccc23)NC(=O)[C@H](CC(=O)O)NC(=O)[C@H](Cc2ccc(OCC(=O)O)cc2)NC(=O)[C@H](CN)NC(=O)CSC[C@@H](C(=O)N[C@@H](C)C(N)=O)NC(=O)[C@H]([C@@H](C)O)NC(=O)[C@H](C(C)C)NC(=O)[C@H](CC2CCCCC2)NC(=O)[C@H](CCN)NC1=O [Compound 1692]
